From patent US9156877B2, “17-hydroxy-17-pentafluorethyl-estra-4,9(10)-dien-11-benzylidene derivatives, methods for the production thereof and use thereof for treating diseases” (Bayer Intellectual Property GmbH, priority 2009, dated 2015)

What was measured:
[1] = biological target: T1, human progesterone receptor A (Homo sapiens, UniProt P06401); experiment: Progesterone receptor-antagonistic action in stably transfected SK-N-MC cells with MMTV-LUC reporter (PR-A); format: cell-based; settings: antagonistic potency against 0.1 nmol/l promegestone, 24 hours, luciferase
T1 construct: expressed in transfected cells; host or cells: SK-N-MC human neuroblastoma cells, stably transfected with pRChPR-A-neo and pMMTV-LUC
T1 sequence (P06401 1-769 isoform P06401-2): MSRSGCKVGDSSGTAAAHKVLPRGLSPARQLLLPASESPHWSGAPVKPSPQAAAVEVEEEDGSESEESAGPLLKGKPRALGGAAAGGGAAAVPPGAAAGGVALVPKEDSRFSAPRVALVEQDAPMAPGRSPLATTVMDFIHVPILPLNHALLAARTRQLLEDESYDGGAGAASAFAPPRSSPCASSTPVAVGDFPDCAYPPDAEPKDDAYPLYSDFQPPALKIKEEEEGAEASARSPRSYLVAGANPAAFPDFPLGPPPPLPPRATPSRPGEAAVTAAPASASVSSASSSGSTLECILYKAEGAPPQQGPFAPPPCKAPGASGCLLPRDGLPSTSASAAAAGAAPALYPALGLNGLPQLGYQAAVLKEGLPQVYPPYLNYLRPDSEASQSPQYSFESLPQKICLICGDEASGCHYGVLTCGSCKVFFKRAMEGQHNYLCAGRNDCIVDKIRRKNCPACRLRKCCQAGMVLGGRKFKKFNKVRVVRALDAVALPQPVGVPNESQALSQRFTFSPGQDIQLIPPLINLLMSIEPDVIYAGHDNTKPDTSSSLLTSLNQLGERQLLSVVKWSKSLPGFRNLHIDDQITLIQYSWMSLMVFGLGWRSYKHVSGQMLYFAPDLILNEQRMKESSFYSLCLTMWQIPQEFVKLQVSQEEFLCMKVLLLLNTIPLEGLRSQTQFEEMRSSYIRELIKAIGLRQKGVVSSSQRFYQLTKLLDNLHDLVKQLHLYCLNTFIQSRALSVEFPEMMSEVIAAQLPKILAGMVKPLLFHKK
Description: (§1) Determination of Progesterone Receptor-Antagonistic Action in Stable Transfectants of Human Neuroblastoma Cells (SK-N-MC Cells) with the Human Progesterone A or Progesterone B Receptor and an MN-LUC Reporter Construct
(§2) SK-N-MC cells (human neuroblastoma cells) which have been stably transfected with plasmids expressing the human progesterone receptor B (pRChPR-B-neo) or the human progesterone receptor A (pRChPR-A-neo) and a reporter construct (pMMTV-LUC) were incubated for 24 hours either in the absence (negative control) or in the presence of ascending amounts of the particular test compound (0.01 nmol/l, 0.1 nmol/l, 1 nmol/l, 10 nmol/l, 100 nmol/l and […]), in order to determine the agonistic efficacy. As a positive control of the reporter gene induction, the cells were treated with the synthetic gestagen promegestone (0.01 nmol/l, 0.1 nmol/l, 1 nmol/l, 10 nmol/l, 100 nmol/l and […]). To determine the antagonistic activity, the cells were treated with 0.1 nmol/l promegestone and additionally with ascending amounts of the particular test compound (0.01 nmol/l, 0.1 nmol/l, 1 nmol/l, 10 nmol/l, 100 nmol/l and […]). The activity of the reporter gene LUC (LUC=luciferase) was determined in the cell lysates and measured as RLU (relative light units). All measurements are reported as % efficacy and as EC50 and IC50 concentrations.

[2] = biological target: T2, human progesterone receptor B (Homo sapiens, UniProt P06401); experiment: Progesterone receptor-antagonistic action in stably transfected SK-N-MC cells with MMTV-LUC reporter (PR-B); format: cell-based; settings: antagonistic potency against 0.1 nmol/l promegestone, 24 hours, luciferase
T2 construct: expressed in transfected cells; host or cells: SK-N-MC human neuroblastoma cells, stably transfected with pRChPR-B-neo and pMMTV-LUC
T2 sequence (P06401 1-933): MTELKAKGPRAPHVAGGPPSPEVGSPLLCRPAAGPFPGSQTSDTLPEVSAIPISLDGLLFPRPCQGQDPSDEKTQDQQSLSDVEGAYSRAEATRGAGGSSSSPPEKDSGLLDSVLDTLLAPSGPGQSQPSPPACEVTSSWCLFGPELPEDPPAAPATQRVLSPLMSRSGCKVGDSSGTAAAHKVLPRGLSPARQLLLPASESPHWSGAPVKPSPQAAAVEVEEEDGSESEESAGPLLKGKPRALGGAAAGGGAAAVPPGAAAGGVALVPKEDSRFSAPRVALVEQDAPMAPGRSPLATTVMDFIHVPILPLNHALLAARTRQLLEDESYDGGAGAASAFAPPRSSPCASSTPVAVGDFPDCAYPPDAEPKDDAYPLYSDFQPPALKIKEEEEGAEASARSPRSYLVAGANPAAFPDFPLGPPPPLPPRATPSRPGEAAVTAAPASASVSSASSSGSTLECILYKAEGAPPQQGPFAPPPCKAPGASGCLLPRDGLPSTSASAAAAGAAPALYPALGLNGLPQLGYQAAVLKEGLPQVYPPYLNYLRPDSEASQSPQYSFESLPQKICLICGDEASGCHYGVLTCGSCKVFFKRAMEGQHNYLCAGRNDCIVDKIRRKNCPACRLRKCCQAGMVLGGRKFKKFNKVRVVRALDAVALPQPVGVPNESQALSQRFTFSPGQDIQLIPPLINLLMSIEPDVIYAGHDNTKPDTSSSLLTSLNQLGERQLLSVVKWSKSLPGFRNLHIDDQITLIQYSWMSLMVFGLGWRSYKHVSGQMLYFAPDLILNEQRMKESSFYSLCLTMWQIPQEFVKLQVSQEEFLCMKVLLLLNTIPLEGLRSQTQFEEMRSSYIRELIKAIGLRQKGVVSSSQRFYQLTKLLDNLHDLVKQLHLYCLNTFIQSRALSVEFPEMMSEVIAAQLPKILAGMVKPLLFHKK
Description: as §1, §2

IC50 [1] | IC50 [2] | SMILES
1.5 nM | 1.8 nM | COc1ccc(C/C=C/c2ccc([C@H]3C[C@@]4(C)[C@@H](CC[C@@]4(O)C(F)(F)C(F)(F)F)[C@@H]4CCC5=CC(=O)CCC5=C43)cc2)cc1 [Example 3, (8S,11R,13S,14S,17S)-17-hydroxy-11-{4-[(E)-3-(4-methoxyphenyl)-propenyl]phenyl}-13-methyl-17-pentafluoroethyl-1,2,6,7,8,11,12,13,14,15,16,17-dodecahydrocyclopenta[a]phenanthren-3-one]
0.011 nM | < 0.01 nM | CCOC(=O)/C=C/C=C/c1ccc([C@H]2C[C@@]3(C)[C@@H](CC[C@@]3(O)C(F)(F)C(F)(F)F)[C@@H]3CCC4=CC(=O)CCC4=C32)cc1 [Example 15, (2E,4E)-5-[4-((8S,11R,13S,14S,17S)-17-hydroxy-13-methyl-3-oxo-17-pentafluoroethyl-2,3,6,7,8,11,12,13,14,15,16,17-dodecahydro-1H-cyclopenta[a]phenanthren-11-yl)phenyl]penta-2,4-dienoic acid ethyl ester]
0.09 nM | 0.1 nM | COC(=O)c1ccc(/C=C/c2ccc([C@H]3C[C@@]4(C)[C@@H](CC[C@@]4(O)C(F)(F)C(F)(F)F)[C@@H]4CCC5=CC(=O)CCC5=C43)cc2)cc1 [Example 31, 4-{(E)-2-[4-((8S,11R,13S,14S,17S)-17-hydroxy-13-methyl-3-oxo-17-pentafluoroethyl-2,3,6,7,8,11,12,13,14,15,16,17-dodecahydro-1H-cyclopenta[a]phenanthren-11-yl)phenyl]vinyl}benzoic acid methyl ester]
1 nM | 1 nM | Cc1nc(/C=C/c2cccc([C@H]3C[C@@]4(C)[C@@H](CC[C@@]4(O)C(F)(F)C(F)(F)F)[C@@H]4CCC5=CC(=O)CCC5=C43)c2)cs1 [Example 24, (8S,11R,13S,14S,17S)-17-hydroxy-13-methyl-11-{3-[(E)-2-(2-methylthiazol-4-yl)vinyl]phenyl}-17-pentafluoroethyl-1,2,6,7,8,11,12,13,14,15,16,17-dodecahydrocyclopenta[a]phenanthren-3-one]
0.09 nM | 0.03 nM | Cc1noc(C)c1NC(=O)NC/C=C/c1ccc([C@H]2C[C@@]3(C)[C@@H](CC[C@@]3(O)C(F)(F)C(F)(F)F)[C@@H]3CCC4=CC(=O)CCC4=C32)cc1 [Example 48, 1-(3,5-dimethylisoxazol-4-yl)-3-{(E)-3-[4-((8S,11R,13S,14S,17S)-17-hydroxy-13-methyl-3-oxo-17-pentafluoroethyl-2,3,6,7,8,11,12,13,14,15,16,17-dodecahydro-1H-cyclopenta[a]phenanthren-11-yl)phenyl]allyl}urea]
0.13 nM | 0.26 nM | CCOC(=O)/C=C/c1ccc([C@H]2C[C@@]3(C)[C@@H](CC[C@@]3(O)C(F)(F)C(F)(F)F)[C@@H]3CCC4=CC(=O)CCC4=C32)cc1 [Example 12, (E)-3-[4-((8S,11R,13S,14S,17S)-17-hydroxy-13-methyl-3-oxo-17-pentafluoroethyl-2,3,6,7,8,11,12,13,14,15,16,17-dodecahydro-1H-cyclopenta[a]phenanthren-11-yl)phenyl]acrylic acid ethyl ester]
8 nM | 3 nM | C[C@]12C[C@H](c3ccc(/C=C/CNC(=O)NCCC(=O)O)cc3)C3=C4CCC(=O)C=C4CCC3C1CC[C@@]2(O)C(F)(F)C(F)(F)F (stereo partly drawn) [Example 50, (3-{(E)-3-[4-((8S,11R,13S,14S,17S)-17-hydroxy-13-methyl-3-oxo-17-pentafluoroethyl-2,3,6,7,8,11,12,13,14,15,16,17-dodecahydro-1H-cyclopenta[a]phenanthren-11-yl)phenyl]allyl}ureido)propionic acid]
0.1 nM | 0.1 nM | Cc1ccc(NC(=O)NC/C=C/c2ccc([C@H]3C[C@@]4(C)[C@@H](CC[C@@]4(O)C(F)(F)C(F)(F)F)[C@@H]4CCC5=CC(=O)CCC5=C43)cc2)cc1 [Example 45, 1-{(E)-3-[4-((8S,11R,13S,14S,17S)-17-hydroxy-13-methyl-3-oxo-17-pentafluoroethyl-2,3,6,7,8,11,12,13,14,15,16,17-dodecahydro-1H-cyclopenta[a]phenanthren-11-yl)phenyl]allyl}-3-p-tolylurea]
1 nM | 2 nM | Cc1nc2cc(/C=C/c3cccc([C@H]4C[C@@]5(C)[C@@H](CC[C@@]5(O)C(F)(F)C(F)(F)F)[C@@H]5CCC6=CC(=O)CCC6=C54)c3)ccc2s1 [Example 25, (8S,11R,13S,14S,17S)-17-hydroxy-13-methyl-11-{3-[(E)-2-(2-methylbenzothiazol-5-yl)vinyl]phenyl}-17-pentafluoroethyl-1,2,6,7,8,11,12,13,14,15,16,17-dodecahydrocyclopenta[a]phenanthren-3-one]
0.9 nM | 1.9 nM | C[C@]12C[C@H](c3ccc(/C=C/CNC(=O)Nc4ccc(C(=O)O)cc4)cc3)C3=C4CCC(=O)C=C4CC[C@H]3[C@@H]1CC[C@@]2(O)C(F)(F)C(F)(F)F [Example 56, 4-(3-{(E)-3-[4-((8S,11R,13S,14S,17S)-17-hydroxy-13-methyl-3-oxo-17-pentafluoroethyl-2,3,6,7,8,11,12,13,14,15,16,17-dodecahydro-1H-cyclopenta[a]phenanthren-11-yl)phenyl]allyl}ureido)benzoic acid]
3 nM | 3 nM | C=Cc1cccc([C@H]2C[C@@]3(C)[C@@H](CC[C@@]3(O)C(F)(F)C(F)(F)F)[C@@H]3CCC4=CC(=O)CCC4=C32)c1 [Example 19, (8S,11R,13S,14S,17S)-17-hydroxy-13-methyl-17-pentafluoroethyl-11-(3-vinylphenyl)-1,2,6,7,8,11,12,13,14,15,16,17-dodecahydrocyclopenta[a]phenanthren-3-one]
0.1 nM | 0.2 nM | C[C@]12C[C@H](c3ccc(/C=C/CNC(=O)Nc4ccc(Cl)cc4)cc3)C3=C4CCC(=O)C=C4CC[C@H]3[C@@H]1CC[C@@]2(O)C(F)(F)C(F)(F)F [Example 53, 1-(4-chlorophenyl)-3-{(E)-3-[4-((8S,11R,13S,14S,17S)-17-hydroxy-13-methyl-3-oxo-17-pentafluoroethyl-2,3,6,7,8,11,12,13,14,15,16,17-dodecahydro-1H-cyclopenta[a]phenanthren-11-yl)phenyl]allyl}urea]
